Results reported in US20170339955A1, “Substituted N-(tetrazol-5-yl)- and N-(triazol-5-yl)arylcarboxamide compounds and their use as herbicides” (BASF SE, priority 2012, published 2017).

Legend:
Format in all cases: in vivo
[1] = tested on: Abutilon theophrasti (velvetleaf); experiment: Greenhouse post-emergence treatment of Abutilon theophrasti (velvetleaf); conditions: application rate 1000 g/ha, scale 0 (no damage) to 100 (complete destruction)
Excerpt: (§1) The culture containers used were plastic flowerpots containing loamy sand with approximately 3.0% of humus as the substrate. The seeds of the test plants were sown separately for each species.
(§2) For the post-emergence treatment, the test plants were first grown to a height of 3 to 15 cm, depending on the plant habit, and only then treated with the active ingredients which had been suspended or emulsified in water. For this purpose, the test plants were either sown directly and grown in the same containers, or they were first grown separately as seedlings and transplanted into the test containers a few days prior to treatment.
(§3) Depending on the species, the plants were kept at 10-25° C. or 20-35° C. The test period extended over 2 to 4 weeks. During this time, the plants were tended, and their response to the individual treatments was evaluated.
(§4) Evaluation was carried out using a scale from 0 to 100. 100 means no emergence of the plants, or complete destruction of at least the aerial moieties, and 0 means no damage, or normal course of growth. A good herbicidal activity is given at values of at least 70 and a very good herbicidal activity is given at values of at least 85.

[2] = tested on: Amaranthus retroflexus L. (pigweed); experiment: Greenhouse post-emergence treatment of Amaranthus retroflexus L. (pigweed); conditions: application rate 1000 g/ha, scale 0 (no damage) to 100 (complete destruction)
Excerpt: as §1, §2, §3, §4

[3] = tested on: Amaranthus retroflexus L. (pigweed); experiment: Greenhouse pre-emergence treatment of Amaranthus retroflexus L. (pigweed); conditions: application rate 1000 g/ha, scale 0 (no damage) to 100 (no emergence/complete destruction)
Excerpt: as §1
(§5) For the pre-emergence treatment, the active ingredients, which had been suspended or emulsified in water, were applied directly after sowing by means of finely distributing nozzles. The containers were irrigated gently to promote germination and growth and subsequently covered with transparent plastic hoods until the plants had rooted. This cover caused uniform germination of the test plants, unless this has been impaired by the active ingredients.
as §3, §4

[4] = tested on: Abutilon theophrasti (velvetleaf); experiment: Greenhouse pre-emergence treatment of Abutilon theophrasti (velvetleaf); conditions: application rate 1000 g/ha, scale 0 (no damage) to 100 (no emergence/complete destruction)
Excerpt: as §1, §5, §3, §4

[5] = tested on: Echinochloa crus-galli (barnyard grass); experiment: Greenhouse post-emergence treatment of Echinochloa crus-galli (barnyard grass); conditions: application rate 1000 g/ha, scale 0 (no damage) to 100 (complete destruction)
Excerpt: as §1, §2, §3, §4

Row | SMILES | damage [%] [1] [%] | damage [%] [2] [%] | damage [%] [3] [%] | damage [%] [4] [%] | damage [%] [5] [%]
1 | Cn1ncnc1NC(=O)c1c(F)cc(Cl)cc1Cl [I.A-1] | 100 | 100 | 80 |  | 
2 | Cn1ncnc1NC(=O)c1c(F)cc(Cl)c(S(C)(=O)=O)c1Cl [I.A-41, 2,4-dichloro-6-fluoro-3-methylsulfonyl-n-(2-methyl-1,2,4-triazol-3-yl)benzamide] | 100 | 100 |  | 95 | 
3 | Cn1nnnc1NC(=O)c1cc(F)c(Cl)cc1Cl [V.A-5] | 100 | 100 | 100 |  | 
4 | Cn1nnnc1NC(=O)c1c(F)cc(Cl)c(S(C)(=O)=O)c1Cl [V.A.-41, 2,4-dichloro-6-fluoro-3-methylsulfonyl-n-(1-methyltetrazol-5-yl)benzamide] | 100 | 100 | 100 |  | 
5 | CSc1c(Cl)cc(F)c(C(=O)Nc2nnnn2C)c1Cl [V.A-1442, 2,4-dichloro-6-fluoro-3-methylsulfanyl-n-(1-methyltetrazol-5-yl)benzamide] | 100 | 100 |  | 100 | 
6 | Cn1ncnc1NC(=O)c1c(F)ccc(Cl)c1Cl [I.A-1441] | 75 | 100 | 100 |  | 
7 | Cn1ncnc1NC(=O)c1cc(F)c(Cl)cc1Cl [I.A-5] | 75 | 85 |  |  | 90
